Experimental data from patent publication US4200650A, “2-Amino-cyclopent-1-ene-1-thiocarboxylic acid-disulfides to treat noradrenergic malfunctions” (Richter Gedeon Vegyeszeti Gyar Rt., priority 1976, dated 1980).

How the values were obtained:
Assay type in all cases: in vivo, male Wistar rats
[1] = system: dopamine-β-hydroxylase; test: Determination of noradrenaline and dopamine levels of brain (dopamine-β-hydroxylase inhibiting effect)
Experimental: (§1) The dopamine-β-hydroxylase inhibiting effects of the new compounds according to the invention were examined by the following tests:
(§2) The tests were performed on male Wistar rats weighing 150 to 200 g. The dopamine-β-hydroxylase inhibiting effects of the compounds were evaluated by determining the change of noradrenaline, dopamine and adrenaline levels of the cerebrum, heart, spleen and adrenal gland. The serotonine and 5-hydroxy-indolylacetic acid levels of the cerebrum were also determined. The measurements were performed as follows:
(§3) The animals were decapitated, the cerebrum, heart, spleen and adrenal gland were removed quickly, and the organs were frozen by placing them onto a metal sheet cooled with dry ice. The frozen organs were stored for maximum one night at -20° C.
Determination of the noradrenaline, dopamine, serotonine and 5-hydroxy-indolylacetic acid contents of brain
The brains were homogenized in 10 parts by volume of 0.4 n perchloric acid. The homogenized mixture was stored at -20° C. overnight, thereafter it was thawed and centrifuged as described above. A sample of the homogenized mixture corresponding to 0.5 g of brain was removed, the pH of the sample was adjusted to 8.0±0.1 with 0.1 molar tris-buffer of the above composition, and the sample was processed as described above for the determination of the noradrenaline content of heart and spleen, with the difference that 1.5 ml of 0.05 n perchloric acid were applied as eluting agent. 0.5 ml of the eluate were applied to determine the noradrenaline and dopamine contents. The measurement was performed as described above, with the difference that samples of 0.5 ml were applied for the recording of the fluorescency of noradrenaline. The residua was placed for 50 minutes into a drying oven heated to 100° C., thereafter the sample was cooled with ice water, and the fluorescency of dopamine was recorded at wavelengths of 325 nm (excitation) and 380 nm (emission).
In a further test series the serotonine and 5-hydroxy-indolylacetic acid contents were also determined, beside the determination of the noradrenaline and dopamine content, from the same sample. In this instance the brains were homogenized in 10 ml of 75% ethanol, 0.2 ml of EDTA-Na2 and 5% of ascorbic acid were added to the homogenized mixtures, and the homogenized mixtures were maintained at -20° C. overnight. The mixtures were centrifuged as described above, and 5.0 ml samples of the supernatant were removed. The samples were diluted with equal volumes of distilled water, and poured onto ion exchange columns of 0.5×1.5 cm dimensions, filled with buffered Amberlite CG-30 (200 to 400 mesh). The columns were washed with 5 ml of distilled water followed by 1.0 ml of 0.2 n hydrochloric acid, and the first effluent and the aqueous wash were collected for the determination of 5-hydroxy-indolylacetic acid. Elution was continued with further 1.2 ml of 0.2 n hydrochloric acid in order to remove noradrenaline, dopamine and serotonine. Samples of 0.3 ml were used for the determinations.
Noradrenaline and dopamine were determined by the method of Shellenberger, modified as described above, whereas serotonine was determined by the method of Curzon et al. (Brit. J. Pharmacol. 39, 653/1970/). The basic method was modified as follows: A 0.5% solution of ortho-phthal(di)aldehyde in absolute ethanol was diluted with 10 n hydrochloric acid to 50-fold of its original volume, and 0.6 ml of the resulting 0.01% ortho-phthal(di)aldehyde solution were added immediately to 0.5 ml of the serotonine-containing sample. The sample was placed into a hot water bath for 10 minutes, thereafter cooled with tap water, and the fluorescency was recorded at wavelengths of 360 nm (excitation) and 490 nm (emission).
In the tests disulfiram, 2,2-dipyridyl, bis(1-methyl-4-homopiperazinyl-thriocaronyl)-disulfide, sodium diethyldithiocarbamate and N-phenyl-N'-(2-thiazolyl)-thiourea were applied as reference substances. […]

[2] = system: dopamine-β-hydroxylase; test: Determination of the noradrenaline content of spleen; settings: ± standard error
Experimental: as §1, §2, §3
(§4) Determination of the noradrenaline content of heart and spleen
(§5) The organs were weighed in frozen state and then homogenized in 5.0 ml of 0.4 n perchloric acid containing 0.05% of EDTA-Naa and 0.1% of Na2 S2 O5. The homogenized mixtures were centrifuged as described above for the treatment of adrenal gland, the supernatants were decanted, and the pH was adjusted to 8.0±0.1 with a 0.1 molar tris buffer containing 20 g/l of NaOH and 25 g/l of EDTA-Na2. 100 mg of prepared Al2 O3 (Anton et al.: J. Pharm. Ther. 138, 360/1962/) were added to the samples, and the mixtures were shaken mechanically for 20 minutes. Thereafter Al2 O3 was washed with 2×10 ml of distilled water, and noradrenaline was eluted with 1.0 ml of 0.05 n perchloric acid. 0.5 ml samples of the eluate were applied for the determination of noradrenaline. Noradrenaline was determined according to the method of Shellenberger et al. (Anal. Biochem. 39, 356/1971/), with the following modifications of the basic procedure: 0.5 ml of 0.1 molar Na-K-phosphate buffer, containing 9 g/l of EDTA-Na2, were added to 0.5 ml of the eluate, and the catecholamines (noradrenaline in the examination of heart and spleen and noradrenaline and dopamine in the examination of the cerebrum) were oxidized with 0.1 ml of a 0.1 n iodine solution in 5% potassium iodide. After exactly 2 minutes oxidation was stopped by adding 0.25 ml of a 2.5% sodium sulfite solution in 4.4 n aqueous sodium hydroxide to the mixture. 2 minutes after the introduction of the alkaline sulfite solution 0.2 ml of concentrated acetic acid were added to the samples, upon which the pH decreased to 4.4 to 4.5 Thereafter the samples were placed for 5 minutes into a drying oven heated to 100° C., and then the samples were cooled with ice water. The fluorescency of noradrenaline was measured with an OPTON spectrophotometer at wavelengths of 380 nm (excitation) and 490 nm (emission).
(§6) In the tests disulfiram, 2,2-dipyridyl, bis(1-methyl-4-homopiperazinyl-thriocaronyl)-disulfide, sodium diethyldithiocarbamate and N-phenyl-N'-(2-thiazolyl)-thiourea were applied as reference substances. The values indicated in Table 1 are the percentages in relation to the amine levels of the controls measured in the same tests (± standard error). The statistical calculations were performed on a TPA/i type computer, using Student's t test.

[3] = system: dopamine-β-hydroxylase; test: Determination of the noradrenaline content of heart; settings: ± standard error
Experimental: as §1, §2, §3, §4, §5, §6

[4] = system: dopamine-β-hydroxylase; test: Determination of the adrenaline content of adrenal gland; settings: ± standard error
Experimental: as §1, §2, §3
Determination of the adrenaline content of adrenal gland
The adrenal glands were freed from fat and homogenized in 3.0 ml of ice-cold 0.4 n perchloric acid. The homogenized mixtures were centrifuged for 10 minutes at 0° C. with a speed of 3200 r.p.m. using a Janetzky K-70 type centrifuge. 0.05 ml samples were taken from the supernatant, and the adrenaline level was determined directly by the method of Laverty et al. (Anal. Biochem. 22, 269/1968/).
as §6

[5] = i.p., 400 mg/kg, time not given
[6] = i.p., 100 mg/kg, 4 hours, ± standard error
[7] = i.p., 200 mg/kg, 4 hours, ± standard error
[8] = i.p., 200 mg/kg, 8 hours, ± standard error
[9] = p.o., 500 mg/kg, 4 hours, ± standard error
[10] = p.o., 500 mg/kg, 8 hours, ± standard error
[11] = i.p., 50 mg/kg, 4 hours, ± standard error

Structure (SMILES)	Spleen NA (noradrenaline) level, percentages in relation to the controls ([2]; i.p., 100 mg/kg, 4 hours) [%]	Spleen NA (noradrenaline) level, percentages in relation to the controls ([2]; i.p., 200 mg/kg, 4 hours) [%]	Spleen NA (noradrenaline) level, percentages in relation to the controls ([2]; i.p., 200 mg/kg, 8 hours) [%]	Spleen NA (noradrenaline) level, percentages in relation to the controls ([2]; p.o., 500 mg/kg, 4 hours) [%]	Heart NA (noradrenaline) level, percentages in relation to the controls ([3]; i.p., 100 mg/kg, 4 hours) [%]	Heart NA (noradrenaline) level, percentages in relation to the controls ([3]; i.p., 200 mg/kg, 4 hours) [%]	Heart NA (noradrenaline) level, percentages in relation to the controls ([3]; i.p., 200 mg/kg, 8 hours) [%]	Heart NA (noradrenaline) level, percentages in relation to the controls ([3]; p.o., 500 mg/kg, 4 hours) [%]	Brain DA (dopamine) level, percentages in relation to the controls [1, 6] [%]	Brain NA (noradrenaline) level, percentages in relation to the controls [1, 6] [%]	Brain DA (dopamine) level, percentages in relation to the controls [1, 7] [%]	Brain NA (noradrenaline) level, percentages in relation to the controls [1, 7] [%]	Brain DA (dopamine) level, percentages in relation to the controls [1, 8] [%]	Brain NA (noradrenaline) level, percentages in relation to the controls [1, 8] [%]	Brain DA (dopamine) level, percentages in relation to the controls [1, 9] [%]	Brain NA (noradrenaline) level, percentages in relation to the controls [1, 9] [%]	Adrenal gland AD (adrenaline) level, percentages in relation to the controls ([4]; i.p., 100 mg/kg, 4 hours) [%]	Adrenal gland AD (adrenaline) level, percentages in relation to the controls ([4]; i.p., 200 mg/kg, 4 hours) [%]	Adrenal gland AD (adrenaline) level, percentages in relation to the controls ([4]; i.p., 200 mg/kg, 8 hours) [%]	Adrenal gland AD (adrenaline) level, percentages in relation to the controls ([4]; p.o., 500 mg/kg, 4 hours) [%]	other results
CCN(CC)C(=S)[S-].[Na+] [DDC-Na, sodium diethyldithiocarbamate, reference compound]																					Brain DA (dopamine) level, percentages in relation to the controls [1, 5]: 120%; Brain NA (noradrenaline) level, percentages in relation to the controls [1, 5]: 64.1%
COCCNC1=C(C(=S)SSC(=S)C2=C(NCCOC)CCC2)CCC1 [Compound M-4, 2-(N-methoxyethyl)-amino-cyclopent-1-ene-thiocarboxylic acid disulfide]	81.4±10.8	69.9±16.9	61.9±9.9	103.1±18.9	91.8±5.9	91.7±9.2	75.7±3.7	86.3±10.1	131.5±8.9	41.9±2.7	134.6±4.0	39.6±4.9	120.6±5.8	28.5±1.4	114.5±2.4	73.6±2.8	77.5±6.3	96.3±6.7	97.0±7.9	96.3±6.0	Spleen NA (noradrenaline) level, percentages in relation to the controls ([2]; p.o., 500 mg/kg, 8 hours): 101.0±14.3%; Heart NA (noradrenaline) level, percentages in relation to the controls ([3]; p.o., 500 mg/kg, 8 hours): 74.0±8.4%; Brain DA (dopamine) level, percentages in relation to the controls [1, 10]: 111.0±4.0%; Brain NA (noradrenaline) level, percentages in relation to the controls [1, 10]: 51.2±2.8%; Adrenal gland AD (adrenaline) level, percentages in relation to the controls ([4]; p.o., 500 mg/kg, 8 hours): 88.1±5.1%
CCCCNC1=C(C([O-])=S)CCC1.CCCCNC1=C(C([O-])=S)CCC1.[Zn+2] [Compound M-3, 2-(N-butyl)-amino-cyclopent-1-ene-thiocarboxylic acid-disulfide(zinc salt)]					91.5±8.1			108.8±3.2	121.3±6.1	73.5±3.2					99.2±5.0	98.8±2.5	60.5±3.6			100.3±8.3	Heart NA (noradrenaline) level, percentages in relation to the controls ([3]; i.p., 50 mg/kg, 4 hours): 84.5±4.1%; Brain DA (dopamine) level, percentages in relation to the controls [1, 11]: 112.2±12.0%; Brain NA (noradrenaline) level, percentages in relation to the controls [1, 11]: 85.0±7.1%; Adrenal gland AD (adrenaline) level, percentages in relation to the controls ([4]; i.p., 50 mg/kg, 4 hours): 66.3±5.5%
NC1=C(C(=S)SSC(=S)C2=C(N)CCC2)CCC1 [Compound M-1]		92.6±12.4	91.2±12.6		86.5±3.7	82.5±5.4	83.2±9.5		121.2±5.8	69.5±12.1	124.5±1.9	56.7±5.9	109.0±5.9	56.5±6.3			87.2±6.7	70.9±5.8	60.2±3.2		
CCNC1=C(C(=S)SSC(=S)C2=C(NCC)CCC2)CCC1 [Compound M-6, 2-(N-ethyl)-amino-cyclopent-1-ene-thiocarboxylic acid-disulfide]	64.1±7.6	85.0±10.8	86.5±23.5	125.4±12.4	92.9±3.3	97.8±8.8	81.3±5.7	82.4±8.2	99.0±5.22	41.8±2.3	134.9±5.4	34.4±2.6	121.7±6.1	34.2±3.5	106.7±3.4	83.9±4.8	123.4±4.6	97.3±4.1	79.0±3.9	121.4±13.7	Spleen NA (noradrenaline) level, percentages in relation to the controls ([2]; p.o., 500 mg/kg, 8 hours): 64.6±12.4%; Heart NA (noradrenaline) level, percentages in relation to the controls ([3]; p.o., 500 mg/kg, 8 hours): 97.5±5.6%; Brain DA (dopamine) level, percentages in relation to the controls [1, 10]: 92.6±4.0%; Brain NA (noradrenaline) level, percentages in relation to the controls [1, 10]: 73.7±4.7%; Adrenal gland AD (adrenaline) level, percentages in relation to the controls ([4]; p.o., 500 mg/kg, 8 hours): 107.5±8.9%
